“Also recorded” adds a separate entry of the source. Blank lines part the entries; values can stand above or below the molecule they belong to.
What was measured:
[1] = Nitrocellulose-filter trapping of 3H-labeled heparin bound to TTR peptides; format: binding; settings: pH 5.0, 3H-labeled heparin 1500 cpm
Procedure: (§1) (A) TTR amino acid sequence where histidine “(+)” and other basic amino acids “+” are marked. (B) Equal mole of TTR-peptides or full-length protein (with or without acidic dissociation), were incubated with ^3H-labeled heparin (1500 cpm) at pH 5.0. The amount of ^3H-labeled heparin bound to the peptides was analyzed using a nitrocellulose-filter trapping method.
To characterize the TTR-heparin interaction, we incubated TTR and its peptide fragments with ^3H-heparin. The binding was analyzed by a nitrocellulose-filter trapping method (18). […] This heparin-binding peptide contains three basic amino acids, including a histidine that likely contributed to the pH dependency seen in the TTR-heparin/HS interaction. This selective binding propy was further verified by SPR analysis (FIG. 9).

[2] = molecular target: T1, dissociated TTR immobilized onto a Biacore sensor chip (Homo sapiens, UniProt P02766); assay: Surface plasmon resonance (Biacore), heparin/HS over immobilized TTR; format: binding
T1 construct: made in house; host or cells: bacteria
Procedure: (A) Dissociated TTR was immobilized onto a Biacore sensor chip and heparin (10 μM) was allowed to interact with the immobilized TTR in neutral or in mildly acidic conditions. (B) HS II (10 μM) binding to TTR at different pH was monitored and the response for each sample is expressed as response units (RU). […] (C) TTR (50 μM) incubated with heparin or HS II for 7 days at pH 5.0 or pH 7.4 was analyzed by ThT fluorescence. Data represent triplicate experiments (means±SEM).
Dissociated TTR was immobilized onto a Biacore sensor chip. Heparin (A), HS II (B) or HS I (C) were injected in a concentration series (ranging from 0.001-70 μM) over the surface at pH 5.0. The response for each concentration was measured at the steady-state region of the curve. The apparent equilibrium dissociation constant (KD) was calculated by plotting the response at steady-state for each concentration versus heparin/HS concentration. The data were fitted to the equation: Response=(Rmax*C)/(KD+C), where C is the concentration of heparin/HS. Two analyte flow rates (20 and 30 μl/min) were tested to assess possible effects of mass transport limitations in the system. […] The presented values are average value of three independent experiments.
(A) Equal amount of dissociated or native protein was immobilized onto a Biacore sensor chip and HS II was allowed to interact with the immobilized TTR at pH 5.0. (B) The values of the HS II-TTR interaction signal were obtained by repeated experiments using three chips with different ligand densities (250-3000 RU). The signals were normalized to a ligand density of 1000 RU and average value is shown. Statistical analysis was done by t test.
Interaction of TTR with heparin/HS was evaluated using a Biosensor system (Biacore2000). TTR was dissociated in acidic buffer (pH 2.7) and then diluted into a 50 mM NaAc (pH 5.0) coupling buffer and immobilized onto a CM5 sensor chip to a level of 3000 RU using an amine-coupling kit (GE Healthcare, Uppsala, Sweden). For binding and kinetic analysis, heparin or HS was injected (concentrations indicated in figure legend) over the surface and equilibrated at different pH. The surface was regenerated after each sample with a 30 s wash step of 0.5 M NaCl. All obtained sensorgrams were double-reference subtracted in Biacore evaluation software 2.0, using the reference flow cell and buffer blank sample.

[3] = SPR analysis of TTR peptides binding to immobilized heparin; settings: pH 5.0, peptide conc. 25 μg/ml, flow rate 20 μl/min
Procedure: Heparin was immobilized onto a Biacore sensor chip (CM5) using the surface thiol coupling kit (GE Healthcare). Peptides derived from regions on the TTR sequence (FIG. 5A) containing a histidine residue (24-35, 51-61 and 84-94), were allowed to interact with the heparin surface at pH 5.0 (peptide conc. 25 μg/ml; flow rate 20 μl/min).

[4] = molecular target: T2, recombinant human WT TTR (Homo sapiens, UniProt P02766); assay: Thioflavin T (ThT) fluorescence assay of TTR fibrillization in vitro; format: biochemical
T2 construct: made in house; host or cells: bacteria
Procedure: (§2) (A, B) The TTR dissolved in phosphate buffer (50 μM, pH 2.7) was incubated alone or with different heparin or HS (12 μM) at 37° C. for 48 h. After incubation the samples were mixed with ThT and fluorescence was measured. Data shown represent triplicate experiments (means±SEM). (C) TTR (500 μM) incubated with heparin (0, 5 or 20 μM) under the same conditions were analyzed with native-PAGE as described in Methods. […] The fibrils migrated in the stacking gel is not shown. (D) Microscopic analysis of the TTR after incubation with heparin. The sample was spotted on a glass and stained with Congo red. Images were taken under fluorescent light (Original magnification: 20×; Scale bar: 5 μm) and polarized light (insert).
(§3) Recombinant wild-type TTR was expressed in bacteria and purified as described previously (Furuya et al. (1991) Biochemistry 30:2415-2421). The purified protein was dissolved in 20 mM phosphate buffer-citric acid (pH 2.7, 3.5, 4.5 or 7.4) to a final concentration of 50 μM for Thioflavin T fluorescence or 500 μM for native-PAGE. Heparin (3H-labeled or unlabeled) and HS were added to the TTR solution to the concentrations as indicated in the respective figure legend. The samples were incubated at 37° C. for the time period as specified.
After incubation, 5 μl of the sample was mixed with ThT in water to a final concentration of 20 μM ThT. The mixture was transferred to a flat bottom-black 96-well plate (Grainer) and the fluorescence was measured at excitation- and emission wavelength of 440 and 480 nm, respectively (Gain=55, FARcyte instruments). Samples aggregated at different pHs were adjusted to neutral pH after completed incubation prior to ThT staining. The experiments were run in duplicate or triplicate.

[5] = tested on: TTR transgenic flies (engineered mutant form of human TTR); assay: Transgenic Drosophila TTR-model, flies reared on supplemented medium; format: in vivo, Drosophila melanogaster; settings: medium supplemented 10 mg/ml, heads collected after 9-17 days
Procedure: (A) Eggs of TTR transgenic flies were cultured on regular medium (control) or medium supplemented with low molecular weight heparin (Klexane®) or heparin. Heads were collected 9-17 days posteclosion and lysed in saline. The extract was analyzed by ThT staining. Values represent the average of duplicate experiments. (B) The presence of heparin in the Drosophila head lysate was analyzed with dot-blot stained Alcian blue. Heparin (25 ng and 50 ng) was used as positive control. Twenty-five microliters of the lysate (same samples as used for ThT analysis) was applied to a nylon membrane (Hybond N+, GE Healthcare) and stained with Alcian blue (0.5% Alcian Blue dissolved in 25% isopropanol and 3% acetic acid).
FIG. 14 illustrates the detection of heparin-TTR co-localization in TTR transgenic flies (A-G) Confocal microscopy analysis of cryo-sections prepared from Drosophila heads. (A) Overview image of a Drosophila head stained with DAPI (blue), showing the brain (Br), optical lobes (OI) and retina (Re). […]
The transgenic Drosophila melanogaster strain (Dhet TTR-A) overexpressing a mutant TTR was generated as described (7). […] The fluorescence was measured as described above. Non-TTR-transgenic flies were used as control to subtract background fluorescence. […]

[6] = molecular target: T3, recombinant wild-type TTR (Homo sapiens, UniProt P02766); assay: Native-PAGE of TTR incubated with heparin (Coomassie, Alcian blue, 3H counting of gel sections); format: biochemical
T3 construct: made in house; host or cells: bacteria
Procedure: TTR dissolved in phosphate buffer (pH 2.7) was co-incubated with heparin (mixture of ^3H-labeled and non-labeled) at 37° C. for 48 h. (A) The TTR-heparin co-incubated sample and heparin alone were separated with native-PAGE and stained with Alcian blue. (B) An identical set of samples was separated on the native-PAGE as above, and each lane was cut into six sections (as illustrated in A). The gel slices were incubated for 2 hr in H2O to extract the heparin. The radioactivity was measured by scintillation counting.
TTR dissolved in phosphate buffer (pH 2.7) was incubated without heparin at 37° C. for 48 h. Heparin (mixture of ^3H-labeled and nonlabeled) was then added and the TTR-heparin sample was incubated for an additional hour at 37° C. The sample was thereafter separated by native-PAGE and the gel was cut into 6 sections as illustrated in FIG. 4A. Radioactivity in each section was measured by scintillation counting. Data represents triplicate experiments (mean±SEM).
as §3
After incubation, 10 μl of the samples was mixed with 2.5 μl of a 5× sample buffer (0.3 M Tris-HCl, pH 6.8, 0.05% bromophenol blue, 50% glycerol) and loaded onto a 10% polyacrylamide gel without SDS. […] For quantification of ^3H-labeled heparin, the corresponding lanes in the gel were cut into six sections including the stacking gel (see FIG. 4A) that were transferred to a scintillation vial in 3 ml of H2O. After 2 hr incubation, 2 ml of scintillation cocktail was added and the radioactivity was measured.

[7] = molecular target: T4, full-length TTR (native, dissociated or aggregated) (Homo sapiens, UniProt P02766); assay: Nitrocellulose-filter trapping of 3H-labeled heparin bound to full-length TTR; format: binding
T4 construct: Equal mole of TTR-peptides or full-length protein (with or without acidic dissociation); made in house; host or cells: bacteria
Procedure: as §1
Recombinant wild type TTR (500 μM) was dissolved in phosphate buffer (pH 7.4 or 2.7) and incubated at 37° C. for the time period as indicated. (a) The incubated samples were analyzed for their degree of aggregation with native PAGE. (b) The samples were incubated with ^3H-labelled heparin for 30 min at room temperature. The amount of heparin bound to the samples with different aggregation degree was analyzed by a nitrocellulose-filter trapping method.

[8] = molecular target: T3, recombinant wild-type TTR; assay: Congo red staining of TTR after incubation with heparin; format: biochemical; settings: fluorescence and polarized light microscopy
Procedure: as §2

Molecule: 24-35 peptide containing the V30M mutation: TTR 24-35 peptide with the V30M mutation associated with familial amyloid neuropathy (PAINVAMHVFRK; UniProt P02766 44-55, looked up, variant V30M)
Binding of 3H-labeled heparin to the peptide [1]: substantially lower binding to heparin compared to the WT peptide

Binding to surface immobilized with dissociated TTR (SPR) ([2]; Thioflavin T 50 μM): no binding | Binding to surface immobilized with aggregated TTR (SPR) ([2]; Thioflavin T injection): significant binding
Molecule: Cc1ccc2c(c1)sc(-c1ccc(N(C)C)cc1)[n+]2C.[Cl-] [Thioflavin T]

Binding of 3H-labeled heparin to the peptide [1]: bound to heparin | Interaction of the peptide with the heparin surface (SPR) [3]: interacted with heparin
Molecule: PAINVAVHVFRK [peptide of aa 24-35, Synthesized peptide of aa 24-35 of TTR]

ThT fluorescence (fibril content) ([4]; TTR 50 μM, pH 2.7, 37° C., 48 h, in the presence of heparin): 8000 AU | Effect on TTR fibrillization (ThT fluorescence) ([4]; pH 2.7 and 5.0): greatly promoted TTR fibrillization | Binding to dissociated TTR (SPR response) ([2]; pH 5.0 (mildly acidic), 10 μM): observed | Affinity of TTR for heparin relative to HS II ([2]; pH 5.0, apparent KD from steady state): 10 fold | Recovery of 3H-labeled heparin in gel sections after co-incubation with TTR ([6]; pH 2.7, 37° C., 48 h co-incubation): substantially recovered in section 1 | Binding of 3H-labelled heparin to aggregated TTR ([7]; TTR 500 μM pre-incubated at pH 7.4 or 2.7, heparin 30 min at room temperature): binds to aggregated TTR | Binding of 3H-labeled heparin to dissociated versus native full-length TTR ([7]; pH 5.0): preferentially bound to dissociated TTR | Congo red staining of fibrils [8]: Congo red positive fibrils
Molecule: heparin
Effect on TTR fibrillization/aggregation (ThT fluorescence) ([4]; TTR 50 μM, pH 2.7, heparin or HS 12 μM, 37° C., 48 h): prompted TTR aggregation, forming substantial amounts of amyloid-like fibrils | TTR amyloid-like fibril formation in fly head lysate (ThT fluorescence) [5]: generated ThT-positive amyloid-like fibrils; also recorded: promoted formation of TTR amyloid-like fibrils | Migration pattern of TTR aggregates on native-PAGE ([6]; TTR 500 μM, heparin 5 or 20 μM, pH 2.7, 37° C., 48 h): substantial macromolecular TTR aggregates migrating in the top of the gel | Interaction of 3H-labeled heparin with pre-aggregated TTR (gel sections) ([6]; TTR aggregated 48 h without heparin, then heparin for 1 h at 37° C.): no or very little heparin interacted with aggregated TTR

Reference: patent US20150037341A1, “Diagnostic and Therapeutic Method” (Plysackaridforskning i Uppsala AB, priority 2011, published 2015)
